Columns and labels:
S. aureus NCTC 8325 = format: cell-based, Staphylococcus aureus
Experimental: The effect of auranofin on the growth of S. aureus was also assessed using a time kill assay. Exponentially growing S. aureus NCTC 8325 were diluted to approximately 5×10^6 cfu/mL in tryptic soy broth (TSB) and auranofin, rifampicin or both auranofin and rifampicin were added. Auranofin was added to cultures at a concentration of 5 μg/mL; 1 μg/mL or 0.5 μg/mL. Rifampicin was added to cultures at a concentration of 1 μg/mL or 0.2 pig/mL, while cultures with auranofin and rifampicin had 0.5 μg/mL auranofin and 0.2 μg/mL rifampicin. Cultures were sampled at various time points and colony forming units determined.

[1] = system: multi-drug resistant clinical isolates of K. pneumoniae; format: cell-based, Klebsiella pneumoniae; settings: 100 μg disc; C204742, C68761, C188681, C71173
Experimental: The ability of auranofin to inhibit the growth of four multi-drug resistant clinical isolates of K. pneumoniae was assessed. The clinical isolates were C204742 (resistant to ampicillin and gentamicin), C68761 (resistant to ampicillin, trimethoprim and sulfamethoxazole), C188681 (resistant to ampicillin, trimethoprim, sulfamethoxazole, ceftazidime, tobramycin and ciprofloxacin) and C71173 (resistant to ampicillin, trimethoprim, sulfamethoxazole, ceftazidime, tobramycin, gentamicin and ciprofloxacin). These strains have been previously described in Chowdhury et al., (2011) Antimicrob Agents Chemother 55: 3140-3149.
Bacterial colonies were picked and diluted 1/1000 in Luria broth (LB). 100 μL of each dilution was then streaked out on LB plates. Discs impregnated with 100 μg auranofin or 100 μg gentimicin or auranofin and gentamicin (100 μg each) were placed on top of the agar. The plates were incubated overnight at 37° C. and any zone of bacterial inhibition was noted.

[2] = system: preformed S. aureus NCTC 8325 biofilms; assay: Preformed biofilm assay (crystal violet); format: cell-based, Staphylococcus aureus
Experimental: The effect of auranofin, alone and in combination with antibiotics, on preformed S. aureus biofilms was assessed. Briefly S. aureus NCTC 8325 was plated in 96-well plates as described in Example 2 and incubated 37° C. for 24 hours. Biofilms were then washed 3 times with TSB and 150 μL of fresh TSB and 3 μL of auranofin at the appropriate dilution in DMSO was added to the wells in duplicate. Plates were again sealed with AeraSeal™ and reincubated 37° C. for 24 hours. Biofilm was then detected as described in above.

[3] = system: S. aureus NCTC 8325 and clinical isolates; assay: Disc assay for resistance development; format: cell-based, Staphylococcus aureus; settings: 4 μg disc, TSB agar, overnight
Experimental: Bacteria were plated on TSB agar. 3M discs (impregnated with 4 μg auranofin, 4 μg rifampicin or DMSO alone) were placed on top of the agar. The plates were incubated overnight at 37° C. and any zone of bacterial inhibition was measured. Any bacterial colonies growing within this zone of inhibition were picked and subsequently analysed for potential resistance against the appropriate compound/antibiotic using a growth or biofilm formation assay as described above. […] These S. aureus Rif mutants were tested in a growth assay and their rifampicin resistance confirmed.

[4] = system: S. aureus (strain SH1000-GFP) in THP-1 cells; assay: S. aureus infection of THP-1 cells (fluorescence microscopy); format: cell-based, Staphylococcus aureus; settings: 1 μg/ml in 0.5% DMSO, moi 3, over 24 h
Experimental: THP-1, a human monocytic cell line was infected with S. aureus (strain SH1000-GFP) at a multiplicity of infection of 3 for 1.5. hours. Cells were washed 3 times and auranofin (1 μg/ml in 0.5% DMSO) or 0.5% DMSO was added. Cells were observed under a fluorescent microscope at various time points post infection (FIG. 3).

[5] = system: E. coli K12 single-knockout mutants; assay: Growth assay of Keio library redox mutants; format: cell-based
Experimental: To determine whether auranofin acts on the antioxidant pathway mutants from the Keio library, containing single-knockout mutants for all non-essential genes of E. coli K12 were tested in a growth assay.
Auranofin stock solution (20 mg/ml) in dimethyl sulfoxide (DMSO) was serially diluted in DMSO and each dilution added in duplicate to a 96-well plate to a final DMSO concentration of 2% (v/v). An overnight culture of E. coli mutants and wild type were diluted 1:100 in Luria Bertani (LB) broth and 150 μl of this sample was added to each well of the 96-well plates. Control wells included an ‘untreated’ control with bacteria in the presence of 2% DMSO and a negative sample (containing […] growth media in the presence of 2% DMSO). Plates were incubated at […] for 22-24 h and bacterial growth assessed by absorbance at a wavelength of 595 nm. The minimum inhibitory concentration (MIC) was defined as the lowest concentration of compound that inhibited growth compared to the no-treatment control.

S. aureus = assay: Resistance frequency assay; format: cell-based, Staphylococcus aureus; settings: CaMHB broth with serial dilutions of the compound
Experimental: Briefly, S. aureus was streaked out on TSB agar plates containing 1×, 1.5×, 2× and 4× the minimum inhibitory concentration of auranofin (1 μg/mL). Any potential mutants were picked and assessed for resistance. The potentially resistant bacteria were cultured overnight in CaMHB broth containing serial dilutions of auranofin, rifampicin or lincomycin and assessed for their resistance profile by measuring the growth of the bacteria in a growth assay and comparing it to the control. “Wild-type” bacteria that had not originally been grown in the agar plates and which were not resistant were also included in the growth assay. “Rif resistant cells” were picked from the rifampicin zone of inhibition and potential “Au resistant” mutants were picked from the edge of the auranofin zone of inhibition and tested.

[6] = system: rifampicin-resistant S. aureus mutants; format: cell-based, Staphylococcus aureus; settings: discs with 4 μg (4 μg each), TSB agar, overnight, data not shown
[7] = system: A. baumannii (D2, A94 and ATCC 17978); assay: Growth assay in LB, absorbance 595 nm; format: cell-based, Acinetobacter baumannii
Experimental: In the first growth assay, three strains of A. baumannii (D2, A94 and ATCC 17978) were cultured in LB in the presence of 1.25, 2.5, 5, 10, 20 or 40 μg/mL auranofin or 1.56, 3.13, 6.25, 12.5, 25, 50, 100 or 200 μg/mL gentamicin for 22-24 hours. Bacterial strains were also grown in the absence of antibiotic, and these were used as controls. The bacterial growth was determined by the measurement of absorbance at 595 nm using a Synergy HT Bio-Tek plate reader. The growth of A. baumannii was then assessed as a percentage of the positive control (bacteria alone grown in the presence of 2% DMSO).
A second growth assay was then performed to determine the effect of a combination of auranofin and gentamicin on bacterial growth. Briefly, A. baumannii was cultured in LB medium for 22-24 hours in the presence of […], 2.5, 5, 10, 20 or 40 μg/ml auranofin and 0, 30, 100, 300 or 1000 μg/ml gentamicin before growth was determined by the measurement of absorbance at 595 nm using a Synergy HT Bio-Tek plate reader. The growth of A. baumannii was then assessed as a percentage of the positive control (bacteria alone grown in the presence of 2% DMSO).

[8] = system: A. baumannii D2 biofilm formation; assay: Biofilm prevention assay (crystal violet); format: cell-based, Acinetobacter baumannii; settings: A. baumannii D2, 24 hours
Experimental: The effect of auranofin on the formation of A. baumannii D2 biofilm formation was assessed using the biofilm prevention assay described above in Example 2 with slight modifications. Briefly, A. baumannii D2 were grown overnight in LB media and diluted 1/100 before 150 μL was added to the wells of a flat bottomed 96-well plate. Three microliters of auranofin or gentamicin at the appropriate dilution in DMSO was added to the wells in duplicate. Controls included a positive control with bacteria alone with media and 2% DMSO and a negative (no bacteria) control with media containing 2% DMSO. Plates were sealed with AeraSeal™ and incubated at 37° C. for 24 hours. The plates were then washed three times with PBS, dried at 60° C. for 1 hour and stained with crystal violet for 1 hour. The plates were again washed three times with water, dried and scanned prior to the addition of 33% acetic acid to re-solubilize the crystal violet stain bound to the adherent cells. Absorbance was then measured at 595 nm and expressed as a percentage of the bacteria only control.

existing biofilms = assay: Action against existing biofilms (general description); format: cell-based; settings: for concentration for action against existing biofilms (not observed even at): organism not stated
biofilm formation = assay: Inhibition of biofilm formation (general description); format: cell-based; settings: organism not stated

## CC[P](CC)(CC)=[Au][S][C@@H]1O[C@H](COC(C)=O)[C@@H](OC(C)=O)[C@H](OC(C)=O)[C@H]1OC(C)=O [auranofin, 2,3,4,6-tetra-o-acetyl-1-thio-J-D-glucopyranosato-S-(triethylphosphine) gold]
S. aureus NCTC 8325; 0.5, 1 or 5 μg/mL auranofin, or 0.5 μg/mL auranofin with 0.2 μg/mL rifampicin
  development of resistant bacteria over time: no resistant bacteria were observed
S. aureus NCTC 8325; auranofin 0.5, 1 or 5 μg/mL, TSB
  growth inhibitory effect in time kill assay: concentration- and time-dependent
[1]
  growth inhibition, disc assay: shows inhibitory activity against all four multi-drug resistant clinical isolates tested
[2]; 5 μg/mL auranofin alone or 1.5 μg/mL rifampicin alone
  effect on the biofilm, compound alone: only a partial effect
[2]; 20 μg/mL and 40 μg/mL auranofin
  effect on existing S. aureus biofilm: essentially eliminating the biofilm
[2]; 24 hours treatment, FIG. 5
  effect on existing S. aureus biofilms (crystal violet staining): dose-dependent inhibitory effect
[3]
  bacterial colonies growing within the zone of inhibition (resistance): No growth was observed
[3]; NCTC 8325 and clinical isolates incl. MRSA
  zone of inhibition: produced zones of inhibition
[4]
  intracellular and extracellular S. aureus growth in infected THP-1 cells: inhibited intracellular and extracellular S. aureus growth
[5]; depletion of gor
  effect of depletion on sensitivity to auranofin: little effect
[5]; mutant lacking gsha
  sensitivity to auranofin compared to the wild-type strain: more sensitive
[5]; mutant lacking gshb
  sensitivity to auranofin compared to the wild-type strain: more sensitive
S. aureus
  resistance of potential mutants picked from agar plates, growth assay: none of the potentially auranofin-resistant bacteria picked from agar plates were actually resistant
[6]
  zone of inhibition on rifampicin-resistant mutants: Zones of inhibition formed

## gentamicin
[7]; A. baumannii A94
  susceptibility in growth assay: partially resistant
[7]; A. baumannii ATCC 17978
  susceptibility in growth assay: susceptible
[7]; A. baumannii D2
  susceptibility in growth assay: completely resistant
[2]; 0.9 or 3 μg/mL rifampicin, 25 or 75 μg/mL gentamicin
  effect on biofilm mass, antibiotic alone: no effect on biofilm mass
[8]
  concentration that completely prevented biofilm formation: > 20 µg/mL

## CC(=O)NC[C@H]1CN(c2ccc(N3CCOCC3)c(F)c2)C(=O)O1 [linezolid]
Existing biofilms; at least
  shift between inhibition of biofilm formation and action against existing biofilms: ≥ 15 fold
Existing biofilms
  concentration for action against existing biofilms (not observed even at): > 100 µg/mL
Biofilm formation
  concentration at which inhibition of biofilm formation is observed: ~6 µg/mL

## CO[C@H]1/C=C/O[C@@]2(C)Oc3c(C)c(O)c4c(O)c(c(/C=N/N5CCN(C)CC5)c(O)c4c3C2=O)NC(=O)/C(C)=C\C=C\[C@H](C)[C@H](O)[C@@H](C)[C@@H](O)[C@@H](C)[C@H](OC(C)=O)[C@@H]1C [rifampicin]
S. aureus NCTC 8325; 0.2 μg/mL and 1 μg/mL rifampicin
  time after which bacterial growth starts to increase (development of resistance): about 10 hours

## CC[C@H]1OC(=O)[C@H](C)[C@@H](O[C@H]2C[C@@](C)(OC)[C@@H](O)[C@H](C)O2)[C@H](C)[C@@H](O[C@@H]2O[C@H](C)C[C@H](N(C)C)[C@H]2O)[C@](C)(O)C[C@@H](C)C(=O)[C@H](C)[C@@H](O)[C@]1(C)O [erythromycin]
Existing biofilms
  concentration for action against existing biofilms (not observed even at): > 3 µg/mL
Biofilm formation
  concentration at which inhibition of biofilm formation is observed: 0.1 to 0.3 µg/mL

— patent US20180020669A1, “Methods for the Inhibition and Dispersal of Biofilms” (priority 2015, published 2018)
